Laboratory results reported in article PMC9865052, “Miltefosine and Nifuratel Combination: A Promising Therapy for the Treatment of Leishmania donovani Visceral Leishmaniasis” (International Journal of Molecular Sciences, 2023).

Target: T1, Trypanothione reductase (TR) (Leishmania donovani, UniProt P39050)
T1 construct: gene TPR; native enzyme in cell extracts of L. donovani axenic amastigotes
Experiment: DTNB-coupled colorimetric TR activity assay ([…] nm) in L. donovani cell extract; Lineweaver-Burk analysis
Format: biochemical

T1 sequence (P39050 whole entry): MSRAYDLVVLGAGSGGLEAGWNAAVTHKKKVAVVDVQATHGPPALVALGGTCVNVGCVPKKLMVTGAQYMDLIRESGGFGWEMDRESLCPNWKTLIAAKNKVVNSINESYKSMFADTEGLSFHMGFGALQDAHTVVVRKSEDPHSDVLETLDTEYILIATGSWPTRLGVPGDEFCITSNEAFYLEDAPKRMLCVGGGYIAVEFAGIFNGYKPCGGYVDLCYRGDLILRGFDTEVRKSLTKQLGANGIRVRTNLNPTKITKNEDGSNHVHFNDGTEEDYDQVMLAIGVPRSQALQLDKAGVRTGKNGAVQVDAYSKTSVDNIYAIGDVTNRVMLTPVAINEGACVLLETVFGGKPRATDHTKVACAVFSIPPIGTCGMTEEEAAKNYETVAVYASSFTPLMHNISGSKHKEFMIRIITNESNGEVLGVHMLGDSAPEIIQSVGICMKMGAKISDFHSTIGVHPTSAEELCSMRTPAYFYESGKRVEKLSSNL

In the case of `CSCC1CN(/N=C/c2ccc([N+](=O)[O-])o2)C(=O)O1` (stereo not shown) [NFT, nifuratel], the Ki is reported as 3.15 ± 0.5 µM.
